Measured values as given in PubChem BioAssay AID623931 (Vanderbilt Specialized Chemistry Center, 2012).

Assays:
[1] = target: 5-hydroxytryptamine receptor 2B (Homo sapiens) (UniProt P41595); assay: PubChem AID 623931; settings: Ricerca radioligand binding panel, % inhibition; at 10 µM; stronger effect = higher value
PubChem AID 623931 = settings: Ricerca radioligand binding panel, % inhibition, at 10 µM, stronger effect = higher value

COc1ccc(C#Cc2ccc(C(=O)N3CCC[C@@H](CO)C3)cc2)cc1
inhibition [1]: 71%
inhibition (PubChem AID 623931; GABA-A muscimol site binding): 21%
inhibition (PubChem AID 623931; K-ATP channel binding): 21%
inhibition (PubChem AID 623931; adenosine A3 receptor binding): 44%
inhibition (PubChem AID 623931; dopamine D3 receptor binding): 19%
inhibition (PubChem AID 623931; dopamine transporter DAT binding): 88%
inhibition (PubChem AID 623931; hERG potassium channel binding): 13%
inhibition (PubChem AID 623931; imidazoline I2 binding): 35%
inhibition (PubChem AID 623931; norepinephrine transporter NET binding): 28%
inhibition (PubChem AID 623931; prostanoid EP4 receptor binding): 45%
inhibition (PubChem AID 623931; purinergic P2Y binding): 23%
inhibition (PubChem AID 623931; serotonin transporter SERT binding): 50%
inhibition (PubChem AID 623931; sigma 1 receptor binding): 37%
